How the values were obtained:
AMPA receptors = assay: electrophysiological assay, AMPA receptors expressed in oocyte; assay type: cell-based, rat; conditions: inhibiting or modulating AMPA receptors expressed in oocyte; read-out: AMPA IC50
From the text: The compounds of the present invention may be assessed by electrophysiological assays in Xenopus oocytes expressing rat whole brain poly(A)^+ RNA (see Keana et. al. J. Med. Chem. 38: 4367-4379 (1995)) or in cultured rat cortical neurons (see Woodward et. al. Mol. Pharmacol. 47: 568-581 (1995)) for AMPA receptor activity. Compounds which are useful for treating or preventing the adverse consequences of stroke, hypoglycemia, neurodegenerative disorders, anxiety, epilepsy or psychosis, or which induce analgesia, will inhibit the currents across the membranes of the oocyte expressing AMPA receptors. However, if the compound potentiates currents across the oocyte membrane, then the compound is expected to be useful in enhancing cognition or treating schizophrenia or neurodegenerative disease such as Parkinson's Disease.
The potency of antagonism or potentiation for these compounds were determined by electrophysiological assay. Potencies of selective compounds described above in inhibiting or modulating AMPA receptors expressed in oocyte and their anticonvulsant activity against maximal electroshock induced convulsion are shown in Table 1.

SMILES: Cn1c(=O)nc(-c2ccccc2)c2cc3c(cc21)OCO3
- melting point: 253 to 255 °C

SMILES: c1ccc(-c2nc(-c3ccc4c(c3)OCO4)c3cc4c(cc3n2)OCO4)cc1
- melting point: 225 to 230 °C

SMILES: C#CCn1c(=O)nc(-c2ccc3c(c2)OCO3)c2cc3c(cc21)OCO3 [1-(2-Propynyl)-6,7-methylenedioxy-4-(3,4-methylenedioxyphenyl)quinazolin-2(1H)-one]
- IC50 (AMPA receptors): 7 µM
- melting point: 235 to 240 °C

SMILES: CCCn1c(=O)oc2cc3c(-c4ccc5c(c4)OCO5)nc(=O)n(C(C)C)c3cc21 [1-Isopropyl-4-(3,4-methylenedioxyphenyl)-8-propyl-7-oxo-oxazol[5,4-g]quinazolin-2(1H)-one]
- IC50 (AMPA receptors): 5 µM
- melting point: 110 to 145 °C

SMILES: CC(C)n1c(=O)nc(-c2ccc3c(c2)OC(F)(F)O3)c2cc3c(cc21)OCO3 [1-Isopropyl-6,7-methylenedioxy-4-(3,4-difluoromethylenedioxyphenyl)quinazolin-2(1H)-one]
- IC50 (AMPA receptors): 2 µM
- melting point: 243 to 245 °C

SMILES: CC(C)n1c(=O)nc(-c2ccc3c(c2)OCCO3)c2cc3c(cc21)OCO3 [1-Isopropyl-6,7-methylenedioxy-4-(3,4-ethylenedioxyphenyl)-quinazolin-2(1H)-one]
- IC50 (AMPA receptors): 1.8 µM
- melting point: 214 to 217 °C

SMILES: CC(C)n1c(=O)nc(-c2cnc3ccccc3c2)c2cc3c(cc21)OCO3 [1-Isopropyl-6,7-methylenedioxy-4-(3-quinolyl)quinazolin-2(1H)-one]
- IC50 (AMPA receptors): 8 µM
- melting point: 279 to 281 °C

SMILES: CC(C)n1c(=O)nc(-c2ccc3ocnc3c2)c2cc3c(cc21)OCO3 [1-Isopropyl-6,7-methylenedioxy-4-(5-benzoxazole)quinazolin-2(1H)-one]
- IC50 (AMPA receptors): 13 µM
- melting point: 241 to 243 °C

SMILES: CC(C)n1c(=O)nc(-c2ccc3c(c2)CCC3)c2cc3c(cc21)OCO3 [1-Isopropyl-6,7-methylenedioxy-4-(5-indanyl)quinazolin-2(1H)-one]
- IC50 (AMPA receptors): 5 µM
- melting point: 73 to 75 °C

SMILES: NCCOc1nc(-c2ccc3c(c2)OCO3)c2cc3c(cc2n1)OCO3 [2-(2-Aminoethoxy)-6,7-methylenedioxy-4-(3,4-methylenedioxyphenyl)quinazoline]
- IC50 (AMPA receptors): 12 µM
- melting point: 162 to 167 °C

SMILES: Cn1ccnc1SCc1nc(-c2ccc3c(c2)OCO3)c2cc3c(cc2n1)OCO3 [2-[(1-Methyl-2-imidazolyl)thio]methyl-6,7-methylenedioxy-4-(3,4-methylenedioxy-phenyl)quinazoline]
- IC50 (AMPA receptors): 7 µM
- melting point: 155 to 160 °C

SMILES: c1ncn(Cc2nc(-c3ccc4c(c3)OCO4)c3cc4c(cc3n2)OCO4)n1 [6,7-Methylenedioxy-2-(1,2,4-triazol-1-yl)methyl-4-(3,4-methylenedioxyphenyl)quinazoline]
- IC50 (AMPA receptors): 9 µM
- melting point: 195 to 198 °C

SMILES: c1nc(-c2ccc3c(c2)OCO3)c2cc3c(cc2n1)OCO3 [6,7-Methylenedioxy-4-(3,4-methylenedioxyphenyl)quinazoline]
- IC50 (AMPA receptors): 11 µM
- melting point: 180 to 185 °C

— patent publication US7652006B2, “Substituted 1(2H)-phthalazinones and pharmaceutical compositions thereof” (Euro-Celtique S.A., priority 1998, dated 2010)
